Laboratory results from patent US11066668B2, “Compositions and methods for modulation of IKBKAP splicing” (Ionis Pharmaceuticals, Inc., priority 2012, dated 2021).
Oligonucleotides are written 5' to 3', each unit as a sugar letter and its base; * is a phosphorothioate linkage, no mark a phosphodiester; rarer units and linkages stand in square brackets, end groups in braces. Plain capitals give the bases only. e = 2'-O-(2-methoxyethyl) (MOE); [5mC] = 5-methylcytosine

Test system: IKBKAP pre-mRNA (mt19-21 minigene)
Experiment: Exon 20 inclusion in HEK-293 cells harboring the mt19-21 IKBKAP minigene (RT-PCR)
Format: cell-based, human
Conditions: HEK-293 with mt19-21 minigene; for % inclusion (exon 20): 0.007 nmol oligonucleotide by electroporation, RT-PCR two days later; for effect on exon 20 inclusion/skipping, in words: 0.007 nmol oligonucleotide
Description: Antisense oligonucleotides were designed targeting a human IKBKAP nucleic acid and were tested for their effects on IKBKAP pre-mRNA in vitro. Together, the overlapping antisense oligonucleotides spanned the entire 74-nucleotide region of the IKBKAP exon 20 sequence, as well as the 100-nucleotide intronic regions immediately upstream and downstream of exon 20. The antisense oligonucleotides are presented in Table 1, and were designed as uniform 2′-O-methoxyethyl ribose (MOE) oligonucleotides with phosphate backbones. Each oligonucleotide is 15 nucleosides in length. All cytosine residues throughout the oligonucleotide are 5-methylcytosines. ‘Start Site’ indicates the 5′-most nucleoside to which the oligonucleotide is targeted in the human gene sequence. “Stop site” indicates the 3′-most nucleoside to which the oligonucleotide is targeted in the human gene sequence. Each oligonucleotide listed in Table 1 is targeted to the human IKBKAP genomic sequence (the complement of GENBANK Accession No NT_008470.16 truncated from nucleotides 13290828 to Ser. No. 13/358,424, designated herein as SEQ ID NO: 1). ISIS 414161 has one mismatch with SEQ ID NO: 1.
Cultured HEK-293 cells harboring the mt19-21 minigene vector construct at a density of 7×10^5 cells per well were transfected using electroporation (Gene Pulsar II apparatus, Bio-Rad) with 0.007 nmol antisense oligonucleotide, as previously described (Hua, Y., et al., 2007. PLoS Biol 5:e73). […] These oligonucleotides served as controls for non-specific effects of uniform MOE oligonucleotides with phosphate backbones. Cells harboring the wt19-21 minigene and the mt19-21 minigene alone were also cultured and were used as controls for exon 20 inclusion levels. Two days later, cDNA synthesized from total RNA extracted from HEK-293 cells was amplified using the forward primer pCDNAF and reverse primer sequence IKAP21R4 to assay the splicing pattern of expressed RNAs by RT-PCR. To calculate exon 20 inclusion levels, the PCR amplicons were labeled with α^32P-dCTP. The PCR products were then separated by native PAGE, followed by phosphorimage analysis on a FUJIFILM FLA-5100 instrument (Fuji Medical Systems USA Inc.). The band intensities were quantified using Multi Gauge software Version 2.3 (FUJIFILM), and values were normalized for the G+C content according to the DNA sequence.
Treatment with antisense oligonucleotides targeting the 3′ and 5′ splice sites caused increased skipping of exon 20.
Additional oligonucleotides were designed targeting the first 30-nucleotide stretch of ISS-40. These oligonucleotides were designed by choosing sequences shifted in one nucleotide increments upstream and downstream (i.e., a “microwalk”) of ISS-40, starting from the +6 position in exon 20. The antisense oligonucleotides are presented in Table 2 and FIG. 4D, and were designed as uniform 2′-O-methoxyethyl ribose (MOE) oligonucleotides with phosphate backbones. Each oligonucleotide is 20 nucleosides in length. All cytosine residues throughout the oligonucleotide are 5-methylcytosines. ‘Start Site’ indicates the 5′-most nucleoside to which the oligonucleotide is targeted in the human gene sequence. “Stop site” indicates the 3′-most nucleoside to which the oligonucleotide is targeted in the human gene sequence. Each oligonucleotide listed in Table 2 is targeted to intron 20 of the human IKBKAP genomic sequence (the complement of GENBANK Accession No NT_008470.16 truncated from nucleotides 13290828 to Ser. No. 13/358,424, designated herein as SEQ ID NO: 1). These oligonucleotides were tested in vitro.
Cultured HEK-293 cells harboring the mt19-21 minigene vector construct at a density of 7×10^5 cells per well were transfected using electroporation (Gene Pulsar II apparatus, Bio-Rad) with 0.007 nmol antisense oligonucleotide, as previously described (Hua, Y., et al., 2007. PLoS Biol 5:e73). […]

Substance: ISIS 414172: uniform 2′-MOE 15-mer, phosphate backbone; ATTGTAATAAAATAC, SEQ ID NO 51, intron 20 (eAeTeTeGeTeAeAeTeAeAeAeAeTeAe[5mC]; splice-switching)
- % inclusion (exon 20) (Table 1): 31%

Substance: ISIS 421999: uniform 2′-MOE 20-mer, phosphate backbone; CTAACTAGTCGCAAACAGTA, SEQ ID NO 68, intron 20 (e[5mC]eTeAeAe[5mC]eTeAeGeTe[5mC]eGe[5mC]eAeAeAe[5mC]eAeGeTeA; splice-switching)
- % inclusion (exon 20) (Table 2 (microwalk experiment)): 82%

Substance: ISIS 414139: uniform 2′-MOE 15-mer, phosphate backbone; GTAGAAAACATTTAA, SEQ ID NO 18, intron 19 (eGeTeAeGeAeAeAeAe[5mC]eAeTeTeTeAeA; splice-switching)
- % inclusion (exon 20) (Table 1): 20%

Substance: ISIS 414143: uniform 2′-MOE 15-mer, phosphate backbone; GCAGTAACATTTTTA, SEQ ID NO 22, intron 19 (eGe[5mC]eAeGeTeAeAe[5mC]eAeTeTeTeTeTeA; splice-switching)
- % inclusion (exon 20) (Table 1): 8%

Substance: ISIS 414145: uniform 2′-MOE 15-mer, phosphate backbone; ATAAATTAAAGCAGT, SEQ ID NO 24, intron 19 (eAeTeAeAeAeTeTeAeAeAeGe[5mC]eAeGeT; splice-switching)
- % inclusion (exon 20) (Table 1): 3%

Substance: ISIS 414176: uniform 2′-MOE 15-mer, phosphate backbone; CATAATTTTAAGTTC, SEQ ID NO 55, intron 20 (e[5mC]eAeTeAeAeTeTeTeTeAeAeGeTeTe[5mC]; splice-switching)
- % inclusion (exon 20) (Table 1): 31%

Substance: ISIS 414138: uniform 2′-MOE 15-mer, phosphate backbone; AAACATTTAAATAGC, SEQ ID NO 17, intron 19 (eAeAeAe[5mC]eAeTeTeTeAeAeAeTeAeGe[5mC]; splice-switching)
- % inclusion (exon 20) (Table 1): 23%

Substance: ISIS 414157: uniform 2′-MOE 15-mer, phosphate backbone; CACTTCCGAATCTGA, SEQ ID NO 36, exon 20 (e[5mC]eAe[5mC]eTeTe[5mC]e[5mC]eGeAeAeTe[5mC]eTeGeA; splice-switching)
- % inclusion (exon 20) (Table 1): 15%

Substance: ISIS 414136: uniform 2′-MOE 15-mer, phosphate backbone; ATAGCCAGGATACAC, SEQ ID NO 15, intron 19 (eAeTeAeGe[5mC]e[5mC]eAeGeGeAeTeAe[5mC]eAe[5mC]; splice-switching)
- effect on exon 20 inclusion/skipping, in words: positive effect on exon 20 inclusion
- % inclusion (exon 20) (Table 1): 45%

Substance: ISIS 414152: uniform 2′-MOE 15-mer, phosphate backbone; GGGCTCGATGATGAA, SEQ ID NO 31, exon 20 (antisense eGeGeGe[5mC]eTe[5mC]eGeAeTeGeAeTeGeAeA)
- % inclusion (exon 20) (Table 1): 3%

Substance: ISIS 414163: uniform 2′-MOE 15-mer, phosphate backbone; ACTAGTCGCAAACAG, SEQ ID NO 42, intron 20 (eAe[5mC]eTeAeGeTe[5mC]eGe[5mC]eAeAeAe[5mC]eAeG; splice-switching)
- effect on exon 20 inclusion/skipping, in words: markedly increased inclusion of exon 20
- % inclusion (exon 20) (Table 1): 74%
- % inclusion (exon 20) (Table 2 (microwalk experiment)): 74%

Substance: ISIS 414155: uniform 2′-MOE 15-mer, phosphate backbone; TCTGAGCTAAAACCA, SEQ ID NO 34, exon 20 (eTe[5mC]eTeGeAeGe[5mC]eTeAeAeAeAe[5mC]e[5mC]eA; splice-switching)
- % inclusion (exon 20) (Table 1): 6%

Substance: ISIS 414177: uniform 2′-MOE 15-mer, phosphate backbone; CTTTTCATAATTTTA, SEQ ID NO 56, intron 20 (e[5mC]eTeTeTeTe[5mC]eAeTeAeAeTeTeTeTeA; splice-switching)
- % inclusion (exon 20) (Table 1): 25%

Substance: ISIS 414132: uniform 2′-MOE 15-mer, phosphate backbone; TACCTAACTCTTCAC, SEQ ID NO 11, intron 19 (eTeAe[5mC]e[5mC]eTeAeAe[5mC]eTe[5mC]eTeTe[5mC]eAe[5mC]; splice-switching)
- % inclusion (exon 20) (Table 1): 19%

Substance: ISIS 414144: uniform 2′-MOE 15-mer, phosphate backbone; TTAAAGCAGTAACAT, SEQ ID NO 23, intron 19 (eTeTeAeAeAeGe[5mC]eAeGeTeAeAe[5mC]eAeT; splice-switching)
- % inclusion (exon 20) (Table 1): 7%

Substance: ISIS 414134: uniform 2′-MOE 15-mer, phosphate backbone; TACACCATTTTACCT, SEQ ID NO 13, intron 19 (eTeAe[5mC]eAe[5mC]e[5mC]eAeTeTeTeTeAe[5mC]e[5mC]eT; splice-switching)
- % inclusion (exon 20) (Table 1): 25%

Substance: ISIS 421995: uniform 2′-MOE 20-mer, phosphate backbone; CTAGTCGCAAACAGTACAAT, SEQ ID NO 64, intron 20 (e[5mC]eTeAeGeTe[5mC]eGe[5mC]eAeAeAe[5mC]eAeGeTeAe[5mC]eAeAeT; splice-switching)
- % inclusion (exon 20) (Table 2 (microwalk experiment)): 92%

Substance: ISIS 414171: uniform 2′-MOE 15-mer, phosphate backbone; AATAAAATACTTATT, SEQ ID NO 50, intron 20 (eAeAeTeAeAeAeAeTeAe[5mC]eTeTeAeTeT; splice-switching)
- % inclusion (exon 20) (Table 1): 32%

Substance: ISIS 414159: uniform 2′-MOE 15-mer, phosphate backbone; TTGTCCAACCACTTC, SEQ ID NO 38, exon 20 (eTeTeGeTe[5mC]e[5mC]eAeAe[5mC]e[5mC]eAe[5mC]eTeTe[5mC]; splice-switching)
- % inclusion (exon 20) (Table 1): 2%

Substance: ISIS 421991: uniform 2′-MOE 20-mer, phosphate backbone; TCGCAAACAGTACAATGGCG, SEQ ID NO 60, intron 20 (eTe[5mC]eGe[5mC]eAeAeAe[5mC]eAeGeTeAe[5mC]eAeAeTeGeGe[5mC]eG; splice-switching)
- % inclusion (exon 20) (Table 2 (microwalk experiment)): 91%

Substance: ISIS 414137: uniform 2′-MOE 15-mer, phosphate backbone; TTTAAATAGCCAGGA, SEQ ID NO 16, intron 19 (eTeTeTeAeAeAeTeAeGe[5mC]e[5mC]eAeGeGeA; splice-switching)
- effect on exon 20 inclusion/skipping, in words: positive effect on exon 20 inclusion
- % inclusion (exon 20) (Table 1): 52%

Substance: ISIS 414129: uniform 2′-MOE 15-mer, phosphate backbone, 5-methylcytosines; AGAGAATTACCACAA, SEQ ID NO 8, intron 19 (eAeGeAeGeAeAeTeTeAe[5mC]e[5mC]eAe[5mC]eAeA; splice-switching)
- % inclusion (exon 20) (Table 1): 23%

Substance: ISIS 421993: uniform 2′-MOE 20-mer, phosphate backbone; AGTCGCAAACAGTACAATGG, SEQ ID NO 62, intron 20 (eAeGeTe[5mC]eGe[5mC]eAeAeAe[5mC]eAeGeTeAe[5mC]eAeAeTeGeG; splice-switching)
- % inclusion (exon 20) (Table 2 (microwalk experiment)): 87%

Substance: ISIS 414170: uniform 2′-MOE 15-mer, phosphate backbone; AATACTTATTGTCTT, SEQ ID NO 49, intron 20 (eAeAeTeAe[5mC]eTeTeAeTeTeGeTe[5mC]eTeT; splice-switching)
- % inclusion (exon 20) (Table 1): 32%

Substance: ISIS 414130: uniform 2′-MOE 15-mer, phosphate backbone; TTCACAGAGAATTAC, SEQ ID NO 9, intron 19 (eTeTe[5mC]eAe[5mC]eAeGeAeGeAeAeTeTeAe[5mC]; splice-switching)
- % inclusion (exon 20) (Table 1): 25%

Substance: ISIS 414165: uniform 2′-MOE 15-mer, phosphate backbone; TCACAAGCTAACTAG, SEQ ID NO 44, intron 20 (eTe[5mC]eAe[5mC]eAeAeGe[5mC]eTeAeAe[5mC]eTeAeG; splice-switching)
- effect on exon 20 inclusion/skipping, in words: markedly increased inclusion of exon 20
- % inclusion (exon 20) (Table 1): 66%
- % inclusion (exon 20) (Table 2 (microwalk experiment)): 64%
